Melting point data for ten molecules are collected here from US7129356B2, “Farnesyl transferase inhibiting 4-substituted quinoline and quinazoline derivatives” (Janssen Pharmaceutica N.V., priority 2000, dated 2006).

Consider `CN(C(=O)c1cc(=O)n(C)c2ccc(C(O)(c3ccc(Cl)cc3)c3cncn3C)cc12)c1cccc(Cl)c1` (stereo not shown) [Example B11, N-(3-chlorophenyl)-6-[(4-chlorophenyl)hydroxy(1-methyl-1H-imidazol-5-yl)methyl]-1,2-dihydro-N,1-dimethyl-2-oxo-4-quinolinecarboxamide], for which the melting point – broadly, the temperature, or range, at which the solid turns liquid – came to 218 °C.

The molecule `Cn1cncc1C(N)(c1ccc(Cl)cc1)c1ccc2c(c1)c(CCc1cccc(Cl)c1)cc(=O)n2C` (stereo not shown) [Example B3, 6-[amino(4-chlorophenyl)(1-methyl-1H-imidazol-5-yl)methyl]-4-[2-(3-chlorophenyl)ethyl]-1-methyl-2(1H)-quinolinone] displayed a melting point of 165 °C.

`Cn1c(=O)cc(CCc2cccc(Cl)c2)c2cc(C(O)(c3ccc(Cl)cc3)c3cccnc3)ccc21` (stereo not shown) [Example B14, 4-[2-(3-chlorophenyl)ethyl]-6-[(4-chlorophenyl)hydroxy-3-pyridinylmethyl]-1-methyl-2(1H)-quinolinone] returned a melting point of 115 °C.

Molecule `Cc1cccc(N(C)C(=O)c2cc(=O)n(C)c3ccc(C(O)(c4ccc(Cl)cc4)c4cncn4C)cc23)c1` (stereo not shown) [Example B12, 6-[(4-chlorophenyl)hydroxy(1-methyl-1H-imidazol-5-yl)methyl]-1,2-dihydro-N,1-dimethyl-N-(3-methylphenyl)-2-oxo-4-quinolinecarboxamide] had a melting point of 185 °C.

For the molecule `Cn1cncc1C(O)(c1ccc(Cl)cc1)c1ccc2c(c1)c(CCc1cccc(Cl)c1)cc(=O)n2C` (stereo not shown) [Example B2, 4-[2-(3-chlorophenyl)ethyl]-6-[(4-chlorophenyl)hydroxy(1-methyl-1H-imidazol-5-yl)methyl]-1-methyl-2(1H)-quinolinone], the melting point was determined as 190 °C.

For `CCOC(=O)c1c(Oc2cccc(Cl)c2)c2cc(C(c3ccc(Cl)cc3)c3cnc(-c4ccccc4)[nH]3)ccc2[nH]c1=O` (stereo not shown) [Example B4 F2, 4-(3-chlorophenoxy)-6-[(4-chlorophenyl)(2-phenyl-1H-imidazol-5-yl)methyl]-1,2-dihydro-2-oxo-3-quinolinecarboxylic acid ethyl ester], the melting point worked out at 189 °C.

Consider `O=c1cc(Oc2ccccc2)c2cc(C(c3ccc(Cl)cc3)n3ccnc3)ccc2[nH]1` (racemic) [Example B1, (±)-6-[(4-chlorophenyl)-1H-imidazol-1-ylmethyl]-4-phenoxy-2(1H)-quinolinone], for which the melting point was found to be 233.3 °C.

For `Cn1c(=O)cc(CCc2cccc(Cl)c2)c2cc(C(N)(c3ccc(Cl)cc3)c3cccnc3)ccc21` (stereo not shown) [Example B15, 6-[amino(4-chlorophenyl)-3-pyridinylmethyl]-4-[2-(3-chlorophenyl)ethyl]-1-methyl-2(1H)-quinolinone], the melting point is 90 °C.

As for `Cn1cnnc1C(O)(c1ccc(Cl)cc1)c1ccc2c(c1)c(CCc1cccc(Cl)c1)cc(=O)n2C` (stereo not shown) [Example B20, 4-[2-(3-chlorophenyl)ethyl]-6-[(4-chlorophenyl)hydroxy(4-methyl-4H-1,2,4-triazol-3-yl)methyl]-1-methyl-2(1H)-quinolinone], the melting point worked out at 200 °C.

In turn, `O=c1[nH]c2ccc(C(c3ccc(Cl)cc3)n3ccnc3-c3ccccc3)cc2c(Oc2cccc(Cl)c2)c1CO` (stereo not shown) [Example B5, 4-(3-chlorophenoxy)-6-[(4-chlorophenyl)(2-phenyl-1H-imidazol-1-yl)methyl]-3-(hydroxymethyl)-2(1H)-quinolinone] yielded a melting point of 246 °C.
